According to publication PMC5881582 (ChemMedChem, 2017):
Read-outs that look alike come from different tables or passages of the source.

How the values were obtained:
[1] = tested on: acetylation of histones H3 and H4 in HT-29 cells; assay: histone H3 and H4 acetylation by Western blot; type: cell-based, human; conditions: HT-29, 5 µM; for time-dependent increase in acetylation of H3 and H4: 24 h
[2] = tested on: acetylation of histones H3 and H4 in SH-SY5Y cells; assay: histone H3 and H4 acetylation by Western blot; type: cell-based, human; conditions: 5 µM; for acetylation of H3 and H4: 6 h; for time-dependent increase in acetylation of H3 and H4: 24 h
[3] = tested on: acetylation of α-tubulin (HDAC6 substrate) in HT-29 cells; assay: α-tubulin acetylation by Western blot; type: cell-based, human; conditions: HT-29, 5 µM; for acetylation level of α-tubulin: 6 h; for time-dependent increase in acetylation of α-tubulin: 24 h
[4] = tested on: acetylation of α-tubulin (HDAC6 substrate) in SH-SY5Y cells; assay: α-tubulin acetylation by Western blot; type: cell-based, human; conditions: 5 µM, 6 h
[5] = molecular target: recombinant human HDAC1 (Homo sapiens, UniProt Q13547); assay: competitive fluorescence-based HDAC deacetylase assay, Boc-L-Lys; type: biochemical; conditions: read-out: IC50 HDAC1; mean ± SD of at least two independent experiments
[6] = molecular target: recombinant human HDAC2 (Homo sapiens, UniProt Q92769); assay: as above; type: biochemical; conditions: for Selectivity HDAC2/HDAC1: HDAC2 IC50 divided by HDAC1 IC50; for IC50: read-out: IC50 HDAC2, mean ± SD of at least two independent experiments
[7] = molecular target: recombinant human HDAC3 (Homo sapiens, UniProt O15379); assay: as above; type: biochemical; conditions: for Selectivity HDAC3/HDAC1: HDAC3 IC50 divided by HDAC1 IC50; for IC50: read-out: IC50 HDAC3, mean ± SD of at least two independent experiments
[8] = molecular target: T1, purified recombinant human HDAC8 (Homo sapiens, UniProt Q9BY41); assay: fluorescence-based HDAC8 assay, commercially available HDAC substrate; type: biochemical; conditions: for Selectivity HDAC8/HDAC1: HDAC8 IC50 divided by HDAC1 IC50; for IC50: read-out: IC50 HDAC8, mean ± SD of at least two independent experiments
T1 sequence (Q9BY41 1-377): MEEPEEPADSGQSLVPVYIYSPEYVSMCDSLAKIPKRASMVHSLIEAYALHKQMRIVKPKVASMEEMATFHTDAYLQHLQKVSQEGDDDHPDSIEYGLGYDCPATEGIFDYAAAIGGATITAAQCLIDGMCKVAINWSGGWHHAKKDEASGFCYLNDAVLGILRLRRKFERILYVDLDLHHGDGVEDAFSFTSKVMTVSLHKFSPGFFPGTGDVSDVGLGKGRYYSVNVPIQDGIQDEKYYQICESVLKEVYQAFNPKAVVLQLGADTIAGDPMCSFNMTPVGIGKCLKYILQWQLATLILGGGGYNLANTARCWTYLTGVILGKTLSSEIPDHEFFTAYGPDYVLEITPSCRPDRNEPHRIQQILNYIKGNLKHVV

[9] = tested on: HT-29 cells; assay: antiproliferative alamarBlue assay; conditions: n=4
[10] = tested on: SH-SY5Y cells; assay: antiproliferative alamarBlue assay; conditions: n=4
[11] = plasma and brain concentrations after i.p. dosing; type: in vivo, Spraugue Dawley rats
[12] = microsomal stability; type: in vitro ADME, rat; conditions: after 30 min incubation
[13] = microsomal stability; type: in vitro ADME, human; conditions: after 30 min incubation
[14] = tested on: MCF-7 cells; assay: antiproliferative alamarBlue assay; conditions: 10 µM, NA = no inhibition at 10 µM
[15] = read-out: EC50 HT-29 24 h, 24 h
[16] = read-out: EC50 HT-29 48 h, 48 h
[17] = read-out: EC50 SH-SY5Y 24 h, 24 h
[18] = read-out: EC50 SH-SY5Y 48 h, 48 h

Sequence of recombinant human HDAC3 (O15379 whole entry): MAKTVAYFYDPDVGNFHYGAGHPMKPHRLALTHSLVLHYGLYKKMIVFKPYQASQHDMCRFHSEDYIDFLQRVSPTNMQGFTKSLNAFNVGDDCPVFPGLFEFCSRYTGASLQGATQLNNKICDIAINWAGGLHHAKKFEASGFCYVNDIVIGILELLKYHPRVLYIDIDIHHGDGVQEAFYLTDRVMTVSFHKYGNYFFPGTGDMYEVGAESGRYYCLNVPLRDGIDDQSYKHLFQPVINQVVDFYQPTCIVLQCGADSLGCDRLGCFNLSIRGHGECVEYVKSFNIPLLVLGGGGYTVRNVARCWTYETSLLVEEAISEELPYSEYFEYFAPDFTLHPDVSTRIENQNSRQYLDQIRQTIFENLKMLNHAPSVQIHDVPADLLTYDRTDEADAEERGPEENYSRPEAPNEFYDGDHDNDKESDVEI
Sequence of recombinant human HDAC3 (Q9Y618 395-489 partner limits assumed): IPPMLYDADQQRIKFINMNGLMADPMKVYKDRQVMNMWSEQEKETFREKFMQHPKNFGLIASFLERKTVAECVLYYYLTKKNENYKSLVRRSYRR
Sequence of recombinant human HDAC2 (Q92769 whole entry): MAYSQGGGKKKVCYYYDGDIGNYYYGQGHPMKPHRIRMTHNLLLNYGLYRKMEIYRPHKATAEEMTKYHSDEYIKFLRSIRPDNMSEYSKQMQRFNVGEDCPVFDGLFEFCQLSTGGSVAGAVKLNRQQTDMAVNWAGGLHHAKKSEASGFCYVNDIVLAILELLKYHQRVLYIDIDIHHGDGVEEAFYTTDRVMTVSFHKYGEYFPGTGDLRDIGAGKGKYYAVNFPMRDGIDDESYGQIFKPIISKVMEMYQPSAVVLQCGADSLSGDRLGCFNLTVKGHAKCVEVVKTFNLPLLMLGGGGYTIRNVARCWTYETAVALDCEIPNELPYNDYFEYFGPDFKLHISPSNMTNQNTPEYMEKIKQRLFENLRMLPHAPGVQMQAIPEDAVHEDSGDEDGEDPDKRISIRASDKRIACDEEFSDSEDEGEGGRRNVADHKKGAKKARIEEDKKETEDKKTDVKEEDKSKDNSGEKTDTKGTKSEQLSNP
Sequence of recombinant human HDAC1 (Q13547 whole entry): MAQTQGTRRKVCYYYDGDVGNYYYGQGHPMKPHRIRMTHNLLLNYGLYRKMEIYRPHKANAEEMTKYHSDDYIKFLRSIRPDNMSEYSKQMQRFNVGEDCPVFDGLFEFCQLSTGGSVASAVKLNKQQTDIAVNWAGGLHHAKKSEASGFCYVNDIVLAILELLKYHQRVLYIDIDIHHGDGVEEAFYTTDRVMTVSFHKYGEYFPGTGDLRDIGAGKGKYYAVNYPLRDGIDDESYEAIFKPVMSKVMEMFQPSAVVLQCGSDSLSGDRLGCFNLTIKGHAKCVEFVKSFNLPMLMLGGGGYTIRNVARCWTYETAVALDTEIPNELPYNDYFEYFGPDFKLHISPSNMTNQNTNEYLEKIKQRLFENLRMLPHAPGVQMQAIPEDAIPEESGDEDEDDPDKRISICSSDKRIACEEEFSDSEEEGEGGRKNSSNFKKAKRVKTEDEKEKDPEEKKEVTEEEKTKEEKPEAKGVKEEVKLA

Row | SMILES | acetylation level of H3 ([1]; 6 h) | time-dependent increase in acetylation of H3 and H4 [1] | acetylation of H3 and H4 [2] | time-dependent increase in acetylation of H3 and H4 [2] | acetylation level of α-tubulin [3] | time-dependent increase in acetylation of α-tubulin [3] | acetylation of α-tubulin [4] | IC50 [5] | Selectivity HDAC2/HDAC1 [6] | IC50 [6] | Selectivity HDAC3/HDAC1 [7] | IC50 [7] | Selectivity HDAC8/HDAC1 [8] | IC50 [8] | EC50 [9, 15] | EC50 [9, 16] | EC50 [10, 17] | EC50 [10, 18] | also measured
1 | O=C(CCCCCCC(=O)Nc1ccccc1)NO [compound 1, SAHA, reference compound] | increased the acetylation level of H3 | unable to cause any significant time-dependent increase | acetylation of both H3 and H4 was increased | time-dependent increase in acetylation of H3 and H4 was observed | increased the acetylation level of α-tubulin | time-dependent increase in acetylation of α-tubulin | increased the acetylation of α-tubulin | – | – | – | – | – | – | – | – | – | – | – | –
2 | O=C(CCCCCCNCc1ccc2ccccc2c1)NO [compound 2g] | increased the acetylation level of H3 | time-dependent increase in acetylation of H3 and H4 was observed | acetylation of both H3 and H4 was increased | time-dependent increase in acetylation of H3 and H4 was observed | increased the acetylation level of α-tubulin | – | increased the acetylation of α-tubulin | 39 ± 3 nM | 8.2 | 320 ± 13 nM | 1.7 | 68 ± 2 nM | 8.2 | 320 ± 26 nM | > 50000 nM | 1100 ± 110 nM | > 50000 nM | 1200 ± 220 nM | acetylation of H4 ([1]; 6 h): significantly increase acetylation of H4
3 | O=C(CCCCCCNCc1cc2ccccc2[nH]1)NO [compound 2j] | increased the acetylation level of H3 | time-dependent increase in acetylation of H3 and H4 was observed | acetylation of both H3 and H4 was increased | time-dependent increase in acetylation of H3 and H4 was observed | increased the acetylation level of α-tubulin | time-dependent increase in acetylation of α-tubulin | increased the acetylation of α-tubulin | 61 ± 5.9 nM | 4.2 | 260 ± 15 nM | 0.41 | 25 ± 2 nM | 10 | 620 ± 42 nM | > 50000 nM | 2100 ± 170 nM | > 50000 nM | 1300 ± 390 nM | brain concentration fold above IC50 for HDAC1 ([11]; 20 min): 6.7 fold; brain concentration fold above IC50 for HDAC2 ([11]; 20 min): 1.6 fold; brain concentration fold above IC50 for HDAC3 ([11]; 20 min): 16 fold; plasma concentration fold higher than IC50 for HDAC1 ([11]; 20 min): 230 fold; plasma concentration fold higher than IC50 for HDAC2 ([11]; 20 min): 54 fold; plasma concentration fold higher than IC50 for HDAC3 ([11]; 20 min): 560 fold; plasma concentration fold higher than IC50 for HDAC8 ([11]; 20 min): 23 fold; brain concentration fold higher than the IC50 for class I HDACs ([11]; abstract): > 1.6 fold; plasma concentration fold higher than the IC50 for class I HDACs ([11]; abstract): > 23 fold; Plasma level ([11]; rat, 25 mg/kg i.p., 20 min): 3820 ± 2050 ng/mL; molar concentration in brain ([11]; rat, 25 mg/kg i.p., 20 min): 0.41 µM; molar concentration in plasma ([11]; rat, 25 mg/kg i.p., 20 min): 14 µM; rat brain level ([11]; rat, 25 mg/kg i.p., 20 min): 122 ± 21 ng/mL; Plasma level ([11]; rat, 25 mg/kg i.p., 40 min): 2100 ± 720 ng/mL; rat brain level ([11]; rat, 25 mg/kg i.p., 40 min): 107 ± 15 ng/mL; percent left in RLM [12]: 85%; percent left in HLM [13]: 12%; Growth inhibition percentage MCF-7 24 h [14]: 61%
